Laboratory results as given in the NIST ThermoML archive (doi:10.1016/j.tca.2007.07.002).

Experiment: mn = molality of the nth substance listed, in mol/kg
Details: 298.15 K, 101 kPa, Liquid, Vibrating tube method

CCCC(N)=O [butanamide] + O
Details	mass density [kg/m3]
m1 = 0.2015	997.019
m1 = 0.3122	997.028
m1 = 0.4106	997.052
m1 = 0.5053	997.083
m1 = 0.628	997.117
m1 = 0.7131	997.16
m1 = 0.827	997.21
m1 = 0.9204	997.269
